We go through one molecule from patent US20240082275A1, “Pharmaceutical formulations comprising 5-Chloro-N4-[2-(dimethylphosphoryl)phenyl]-N2-{2-methoxy-4-[4-(4-methylpiperazin-1-yl)piperidin-1-yl]phenyl}pyrimidine-2,4-diamine” (Takeda Pharmaceutical Company Limited, priority 2017, published 2024).

A short description of the data set: Solid-state properties of brigatinib Form A (hygroscopicity, polymorphic conversion). The class given is physicochemical.

Consider `COc1cc(N2CCC(N3CCN(C)CC3)CC2)ccc1Nc1ncc(Cl)c(Nc2ccccc2P(C)(C)=O)n1` [Brigatinib Form A, 5-chloro-N4-[2-(dimethylphosphoryl)phenyl]-N2-{2-methoxy-4-[4-(4-methylpiperazin-1-yl)piperidin-1-yl]phenyl}pyrimidine-2,4-diamine], for which the hygroscopicity result is reported as “non-hygroscopic”. Also, for the setting “solvent-mediated or solid-solid transitions, elevated temperature, elevated humidity, mechanical pressure or grinding”, the “conversion to other polymorphic forms” value is recorded as “does not convert to other polymorphic forms”.
